Reference: article PMC6212544, “Identification and Characterization of Novel CFTR Potentiators” (Frontiers in Pharmacology, 2018)

Assays:
F508del CFTR [1] = molecular target: T1, F508del CFTR (Homo sapiens, UniProt P13569, DEL508-508); experiment: YFP halide assay, CFBe41o- cells, chemically corrected F508del CFTR; type: cell-based; conditions: GLPG2222-like compound 1 μM as corrector, Supplementary Figure 2
Protocol: CFBe41o- cells were plated in black 384-well microplates at a density of 1,500 cells per well. After 24 h, cells were transduced with adenoviruses containing F508del CFTR and YFP (H148Q/I152L/) F47L using a multiplicity of infection of 30 infectious units per cell for each adenovirus. The next day, for the low temperature corrected assay, cells were incubated at 27°C for 24 h, for the chemically corrected assay cells were treated with corrector for 24 h at 37°C. On the day of analysis, cells were washed five times with Dulbecco’s Phosphate-Buffered Saline (DPBS) containing Ca^2+ and Mg^2+ (Life Technologies) using a Microplate Washer (BioTek). […] The capacity of potentiators to increase CFTR channel function was expressed as 1-[fluorescence 36 s after NaI addition (F)/fluorescence before NaI addition (F0)], a timepoint optimized previously, resulting in an optimal signal window. […]
Compound activity was then tested in a more physiologically relevant system, i.e., primary bronchial epithelial cells derived from CF patients. The effect on the function of VX809 (3 μM) corrected F508del/F508del CFTR was determined using an electrophysiological readout (TECC) and the data were compared to the data generated in the YFP halide assay. […]

F508del CFTR [2] = molecular target: T1, F508del CFTR; experiment: Patch clamp, inside-out patches of CHO cells expressing F508del CFTR; type: cell-based; parameters: expressed in transfected cells; host or cells: CHO cells, transient, pcDNA plasmid
Protocol: A more complete description of the patch-clamp methodology can be found in a recent publication ([Lin et al., 2016]). Briefly, CHO (Chinese Hamster Ovary) cells were transiently transfected with pcDNA plasmids containing various CFTR constructs and pEGFP-C3. After transfection, cells were trypsinized and plated onto 35 mm tissue culture dishes dispersed with sterilized glass chips. Electrophysiological experiments were performed 3–7 days following transfection.
Patch-clamp experiments were performed at room temperature with an EPC-9 patch clamp amplifier (HEKA Instruments, Holliston, MA, United States). Recording microelectrodes were made from borosilicate capillary glass with a two-stage pipette puller (Narishige, Tokyo, Japan). The pipette tip was polished with a home-made microforge before use. The pipette solution contained (in mM) 140 NMDG (N-methyl-d-glucamine)-Cl (Fisher Biotec), 2 MgCl2 (Fisher Biotec, Perth, Australia), 5 CaCl2 (Fisher Biotec), and 10 HEPES (Fisher Biotec), pH 7.4, with NMDG (see [Lin et al., 2016] for details). The pipette resistance when filled with the regular pipette solution was 3–5 MΩ. Once the tip of the pipette and the cell membrane established GΩ resistance, the electrode was quickly pulled away from the cell to form an inside-out patch, where the cytosolic side of the membrane was exposed to the perfusion solution. Cells were perfused with a bath solution having (in mM) 145 NaCl (Fisher Biotec), 5 KCl (Fisher Biotec), 2 MgCl2, 1 CaCl2, 5 glucose (Fisher Biotec), 5 HEPES, and 20 sucrose (Fisher Biotec), pH 7.4, with NaOH (Fisher Biotec). After establishing an inside-out configuration, the patch was perfused with a standard perfusion solution (i.e., intracellular solution) containing (in mM) 150 NMDG-Cl, 2 MgCl2, 10 EGTA (Fisher Biotec), and 8 Tris (Fisher Biotec), pH 7.4, with NMDG (see [Lin et al., 2016] for details) containing the catalytic subunit of protein kinase A (PKA) and 2 mM ATP. Once the phosphorylation-dependent activation of CFTR reached a plateau, 3 μM GLPG1837 or 10 μM GLPG2451 was applied in the continuous presence of 2 mM ATP until a steady state was attained.
Microscopic kinetic analysis was performed with a program provided by Dr. László Csanády (Semmelweis University, Budapest, Hungary) ([Csanády, 2000]). Experiments were performed 4-5 times and averages and SEM were calculated. The resulting Po values and single-channel kinetic parameters were compared with paired t-test (Excel, Microsoft); P < 0.05 is considered statistically significant.

T1 sequence (P13569 with tags, fused parts or gaps DEL508-508): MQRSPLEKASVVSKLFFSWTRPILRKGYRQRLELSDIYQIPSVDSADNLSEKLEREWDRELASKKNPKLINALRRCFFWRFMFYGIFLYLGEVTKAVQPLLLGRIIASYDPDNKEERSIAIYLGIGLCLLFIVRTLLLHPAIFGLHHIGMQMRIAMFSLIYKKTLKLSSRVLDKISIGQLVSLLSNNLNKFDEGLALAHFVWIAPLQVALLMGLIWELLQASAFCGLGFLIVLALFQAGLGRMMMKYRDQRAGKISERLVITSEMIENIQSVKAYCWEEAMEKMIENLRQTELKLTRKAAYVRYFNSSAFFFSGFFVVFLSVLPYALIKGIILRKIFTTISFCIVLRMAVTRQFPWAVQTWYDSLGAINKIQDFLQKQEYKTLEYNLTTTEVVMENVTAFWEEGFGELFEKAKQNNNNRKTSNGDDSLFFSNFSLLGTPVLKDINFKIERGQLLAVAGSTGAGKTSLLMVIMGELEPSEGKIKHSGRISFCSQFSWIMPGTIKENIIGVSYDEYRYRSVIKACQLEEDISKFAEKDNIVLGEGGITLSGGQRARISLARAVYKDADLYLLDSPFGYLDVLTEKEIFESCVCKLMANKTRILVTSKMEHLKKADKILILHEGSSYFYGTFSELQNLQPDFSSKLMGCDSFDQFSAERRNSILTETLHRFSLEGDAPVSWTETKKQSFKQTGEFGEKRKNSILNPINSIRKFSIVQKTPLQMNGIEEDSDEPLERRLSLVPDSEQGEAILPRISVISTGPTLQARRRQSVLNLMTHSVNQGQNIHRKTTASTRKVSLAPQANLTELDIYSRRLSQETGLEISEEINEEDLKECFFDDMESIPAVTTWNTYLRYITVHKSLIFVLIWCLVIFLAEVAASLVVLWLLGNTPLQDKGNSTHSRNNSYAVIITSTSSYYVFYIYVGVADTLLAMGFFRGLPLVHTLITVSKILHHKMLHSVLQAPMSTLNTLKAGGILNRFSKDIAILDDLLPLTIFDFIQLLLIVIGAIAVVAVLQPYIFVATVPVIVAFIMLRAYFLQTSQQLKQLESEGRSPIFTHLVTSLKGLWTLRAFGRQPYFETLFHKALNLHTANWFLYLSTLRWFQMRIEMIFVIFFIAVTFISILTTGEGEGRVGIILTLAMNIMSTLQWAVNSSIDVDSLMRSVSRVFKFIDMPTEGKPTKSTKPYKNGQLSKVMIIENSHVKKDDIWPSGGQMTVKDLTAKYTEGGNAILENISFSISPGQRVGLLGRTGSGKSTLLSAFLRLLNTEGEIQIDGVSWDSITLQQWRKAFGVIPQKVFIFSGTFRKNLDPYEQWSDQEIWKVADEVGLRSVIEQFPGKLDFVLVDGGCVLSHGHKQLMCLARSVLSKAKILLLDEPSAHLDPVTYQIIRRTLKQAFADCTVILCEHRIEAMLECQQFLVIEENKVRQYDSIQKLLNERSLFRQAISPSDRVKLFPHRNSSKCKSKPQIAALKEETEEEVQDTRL

With `CC1(C)Cc2c(sc(NC(=O)c3ccn[nH]3)c2C(N)=O)C(C)(C)O1` [GLPG1837, N-(3-Carbamoyl-5,5,7,7-tetramethyl-5,7-dihydro-4H-thieno[2,3-c]pyran-2-yl)-lH-pyrazole-5-carboxamide] the “Potency on chemically corrected F508del CFTR (YFP halide assay)” value (F508del CFTR [1]) was “corresponded closely to the potency obtained on chemically corrected F508del HBE cells”, the “Closed time constant τc, F508del CFTR” value (F508del CFTR [2]; 3 μM GLPG1837) was 2.18 ± 0.52 s and the “Open time constant τo, F508del CFTR” value (F508del CFTR [2]; 3 μM GLPG1837) was 3.29 ± 0.82 s. The “Open probability Po, F508del CFTR” value (F508del CFTR [2]; 3 μM GLPG1837, pre-potentiator Po 0.04 ± 0.01) was 0.55 ± 0.05.

`C[C@H](O)CNC(=O)c1ncc(S(=O)(=O)c2ccc(OC(F)(F)F)cc2)cc1N` [GLPG2451] was tested, and the “Potency on chemically corrected F508del CFTR (YFP halide assay)” value (F508del CFTR [1]) was “corresponded closely to the potency obtained on chemically corrected F508del HBE cells”, the “Closed time constant τc, F508del CFTR” value (F508del CFTR [2]; 10 μM GLPG2451) was 4.44 ± 2.23 s and the “Open time constant τo, F508del CFTR” value (F508del CFTR [2]; 10 μM GLPG2451) was 5.05 ± 1.82 s. The “Open probability Po, F508del CFTR” value (F508del CFTR [2]; 10 μM GLPG2451, pre-potentiator Po 0.05 ± 0.01) was 0.57 ± 0.05.
